Test results reported in patent publication US11465974B2, “Crystalline polymorphs of Pracinostat and Pracinostat salts” (ASSIA CHEMICAL INDUSTRIES LTD., priority 2017, dated 2022).
Where a name gives a salt, the structure may show the parent alone.

Key:
Format in all cases: physicochemical
Grinding stability test = details: ground by mortar and pestle for 1 minute at room temperature, without solvent or with one drop of ethanol, isopropyl alcohol or water
Experimental: Grinding stability test: The tested sample was grinded by moltal&pestle for 1 minute at room temperature either without a solvent or with one drop of solvent from the following solvents: Ethanol, Isopropyl alcohol and water.

[1] = Hygroscopicity (absorption of water, determined for example by TGA)
From the text: As used herein the term non-hygroscopic in relation to crystalline forms of Pracinostat refers to less than 0.2% (w/w) absorption of water, by the crystalline form of Pracinostat, as determined for example by TGA. Water can be for example atmospheric water.

[2] = Physical pressure stability test; details: 3 ton pressure for 1 minute at room temperature
Experimental: Physical pressure stability test: The tested sample was exposed to 3 ton pressure for 1 minute at room temperature.

[3] = Polymorphic stability at relative humidity 0% to 100%; details: RH of from 0% to 100%, room temperature
Thermal stability test = details: heated to 100° C. for 30 minutes at open dish
Experimental: Thermal stability test: The tested sample was heated to temperature of 100° C. for 30 minutes at open dish.

SMILES | stability under grinding (Grinding stability test) | absorption of water (hygroscopicity) [1] | stability under physical pressure [2] | period of polymorphic stability [3] | stability under thermal test (Thermal stability test)
CCCCc1nc2cc(/C=C/C(=O)NO)ccc2n1CCN(CC)CC [Form P7, (E)-3-[2-Butyl-1-[2-(diethylamino)ethyl]-1H-benzo[d]imidazol-5-yl]-N-hydroxy-acrylamide] | stable | less than 0.2 % (w/w) | stable | at least 7 days | stable
CCCCc1nc2cc(/C=C/C(=O)NO)ccc2n1CCN(CC)CC [Pracinostat sulfate Form S1] | stable | less than 2 % (w/w) | stable | at least 7 days | stable
CCCCc1nc2cc(/C=C/C(=O)NO)ccc2n1CCN(CC)CC [Form P3, (E)-3-[2-Butyl-1-[2-(diethylamino)ethyl]-1H-benzo[d]imidazol-5-yl]-N-hydroxy-acrylamide] | stable | less than 0.2 % (w/w) | stable | at least 7 days | stable
